Here are results for 32 compounds from patent US8889676B2, “3-ureidoisoquinolin-8-yl derivatives” (Actelion Pharmaceuticals Ltd., priority 2011, dated 2014).

Values after ≈ are worked out from the molar mass of the structure shown.

Usually MIC stands for the smallest concentration in the dilution series that meets the test's criterion for growth inhibition.

The assay relates to S. pneumoniae ATCC 49619. The assay is described as follows: Minimal inhibitory concentration (MIC) by broth microdilution (CLSI M7-A7). The assay is classed as cell-based, Streptococcus pneumoniae. To be noted: Streptococcus pneumoniae, ATCC49619; cation-adjusted Mueller Hinton Broth supplemented with 3% (v/v) lysed horse blood; microdilution method. Here is the method: Minimal inhibitory concentrations (MICs; mg/l) were determined in cation-adjusted MuellerHinton Broth (supplemented with 3% (v/v) lysed horse blood for testing Streptococcus pneumoniae) by a microdilution method following the description given in “Methods for Dilution Antimicrobial Susceptibility Tests for Bacteria that Grow Aerobically”, Approved standard, 7th ed., a Clinical and Laboratory Standards Institute (CLSI) Document M7-A7, Wayne, Pa., USA, 2006.
For orientation: Dilution methods test growth across graded concentrations, often in twofold steps.
`C#CC(=O)NCc1ccc(-c2ccncc2)c2cc(NC(=O)NCC)ncc12` [Example 75, propynoic acid [3-(3-ethyl-ureido)-5-pyridin-4-yl-isoquinolin-8-ylmethyl]-amide] came in with a minimal inhibitory concentration (MIC) of 0.25 µg/mL (≈ 0.669 µM). The result for `CCNC(=O)Nc1cc2c(-c3ccncc3)ccc(CNC(=O)OC(C)(C)C)c2cn1` [Example 76, [3-(3-ethyl-ureido)-5-pyridin-4-yl-isoquinolin-8-ylmethyl]-carbamic acid tert-butyl ester] reads 0.25 µg/mL (≈ 0.593 µM); that for `CCNC(=O)Nc1cc2c(-c3ccncc3)ccc(CNC(=O)OC(C)C)c2cn1` [Example 77, [3-(3-ethyl-ureido)-5-pyridin-4-yl-isoquinolin-8-ylmethyl]-carbamic acid isopropyl ester], 0.5 µg/mL (≈ 1.23 µM). The result for `CCNC(=O)Nc1cc2c(-c3ccncc3)ccc(CNC(=O)OCCN(C)C)c2cn1` [Example 78, [3-(3-ethyl-ureido)-5-pyridin-4-yl-isoquinolin-8-ylmethyl]-carbamic acid 2-dimethylamino-ethyl ester] reads 4 µg/mL (≈ 9.16 µM); that for `CCNC(=O)Nc1cc2c(-c3ccncc3)ccc(CNC(=O)OC)c2cn1` [Example 79, [3-(3-ethyl-ureido)-5-pyridin-4-yl-isoquinolin-8-ylmethyl]-carbamic acid methyl ester], 0.25 µg/mL (≈ 0.659 µM); that for `CCNC(=O)Nc1cc2c(-c3ccncc3)ccc(CNC(=O)OCCN3CCCC3)c2cn1` [Example 80, [3-(3-ethyl-ureido)-5-pyridin-4-yl-isoquinolin-8-ylmethyl]-carbamic acid 2-pyrrolidin-1-yl-ethyl ester], 8 µg/mL (≈ 17.3 µM). For `CCNC(=O)Nc1cc2c(-c3ccncc3)ccc(CNC(=O)OCCNC(=O)OC(C)(C)C)c2cn1` [Example 81, [3-(3-ethyl-ureido)-5-pyridin-4-yl-isoquinolin-8-ylmethyl]-carbamic acid 2-tert-butoxycarbonylamino-ethyl ester] the value was 0.5 µg/mL (≈ 0.983 µM). Turning to `CCNC(=O)Nc1cc2c(-c3ccncc3)ccc(CNC(=O)OCCN(C)C(=O)OC(C)(C)C)c2cn1` [Example 82, tert-butyl (2-((((3-(3-ethylureido)-5-(pyridin-4-yl)isoquinolin-8-yl)methyl)carbamoyl)oxy)ethyl)(methyl)carbamate], the lowest concentration to inhibit growth (MIC) was 2 µg/mL (≈ 3.83 µM).

`CCNC(=O)Nc1cc2c(-c3ccncc3)ccc(CNC(=O)OCCN3CCN(C(=O)OC(C)(C)C)CC3)c2cn1` [Example 83, tert-butyl 4-(2-((((3-(3-ethylureido)-5-(pyridin-4-yl)isoquinolin-8-yl)methyl)carbamoyl)oxy)ethyl)piperazine-1-carboxylate]: inhibition of growth (MIC) required 1 µg/mL (≈ 1.73 µM). On to `CCNC(=O)Nc1cc2c(-c3ccncc3)ccc(CNC(=O)OCC3CC3)c2cn1.Cl` [Example 84, [3-(3-ethyl-ureido)-5-pyridin-4-yl-isoquinolin-8-ylmethyl]-carbamic acid cyclopropylmethyl ester hydrochloride], for which 0.5 µg/mL was the least that counted as inhibitory (MIC). For `CCNC(=O)Nc1cc2c(-c3ccncc3)ccc(CNC(=O)OCCCN3CCCC3=O)c2cn1.Cl` [Example 85, [3-(3-ethyl-ureido)-5-pyridin-4-yl-isoquinolin-8-ylmethyl]-carbamic acid 3-(2-oxo-pyrrolidin-1-yl)-propyl ester hydrochloride] the value was 1 µg/mL; for `CCNC(=O)Nc1cc2c(-c3ccncc3)ccc(CNC(=O)OC[C@@H]3CCC(=O)N3)c2cn1.Cl` [Example 87, (S)-[3-(3-ethyl-ureido)-5-pyridin-4-yl-isoquinolin-8-ylmethyl]-carbamic acid 5-oxo-pyrrolidin-2-ylmethyl ester hydrochloride], 0.25 µg/mL; for `CCNC(=O)Nc1cc2c(-c3ccncc3)ccc(CNC(=O)OCc3cncn3C)c2cn1.Cl` [Example 88, [3-(3-ethyl-ureido)-5-pyridin-4-yl-isoquinolin-8-ylmethyl]-carbamic acid 3-methyl-3H-imidazol-4-ylmethyl ester hydrochloride], 2 µg/mL. The result for `CCNC(=O)Nc1cc2c(-c3ccncc3)ccc(CNC(=O)OCCCN(C)C)c2cn1.Cl` [Example 89, [3-(3-ethyl-ureido)-5-pyridin-4-yl-isoquinolin-8-ylmethyl]-carbamic acid 3-dimethylamino-propyl ester hydrochloride] reads 8 µg/mL; that for `CCNC(=O)Nc1cc2c(-c3ccncc3)ccc(CNC(=O)CCCO)c2cn1` [Example 90, N-[3-(3-ethyl-ureido)-5-pyridin-4-yl-isoquinolin-8-ylmethyl]-4-hydroxy-butyramide], 2 µg/mL (≈ 4.91 µM).

`CCNC(=O)Nc1cc2c(-c3ccncc3)ccc(CNC(=O)OCCN3CCOCC3)c2cn1.Cl` [Example 91, [3-(3-ethyl-ureido)-5-pyridin-4-yl-isoquinolin-8-ylmethyl]-carbamic acid 2-morpholin-4-yl-ethyl ester hydrochloride] gave an MIC of 1 µg/mL. The result for `CCNC(=O)Nc1cc2c(-c3ccncc3)ccc(CNC(=O)OCCCN3CCCCC3)c2cn1.Cl` [Example 92, [3-(3-ethyl-ureido)-5-pyridin-4-yl-isoquinolin-8-ylmethyl]-carbamic acid 3-piperidin-1-yl-propyl ester hydrochloride] reads 4 µg/mL; that for `CCNC(=O)Nc1cc2c(-c3ccncc3)ccc(CNC(=O)OCCN3CCNC3=O)c2cn1.Cl` [Example 93, [3-(3-ethyl-ureido)-5-pyridin-4-yl-isoquinolin-8-ylmethyl]-carbamic acid 2-(2-oxo-imidazolidin-1-yl)-ethyl ester hydrochloride], 8 µg/mL. The result for `CCNC(=O)Nc1cc2c(-c3ccncc3)ccc(CNC(=O)OCCCOC)c2cn1.Cl` [Example 94, [3-(3-ethyl-ureido)-5-pyridin-4-yl-isoquinolin-8-ylmethyl]-carbamic acid 3-methoxy-propyl ester hydrochloride] reads 0.5 µg/mL; that for `CCNC(=O)Nc1cc2c(-c3ccncc3)ccc(CNC(=O)CCCOC)c2cn1` [Example 95, N-[3-(3-ethyl-ureido)-5-pyridin-4-yl-isoquinolin-8-ylmethyl]-4-methoxy-butyramide], 0.5 µg/mL (≈ 1.19 µM). The result for `CCNC(=O)Nc1cc2c(-c3ccncc3)ccc(CNC(=O)OCC(N)=O)c2cn1.Cl` [Example 96, [3-(3-ethyl-ureido)-5-pyridin-4-yl-isoquinolin-8-ylmethyl]-carbamic acid carbamoylmethyl ester hydrochloride] reads 2 µg/mL; that for `CCNC(=O)Nc1cc2c(-c3ccncc3)ccc(CNC(=O)OCCN3C(=O)CCC3=O)c2cn1.Cl` [Example 97, [3-(3-ethyl-ureido)-5-pyridin-4-yl-isoquinolin-8-ylmethyl]-carbamic acid 2-(2,5-dioxo-pyrrolidin-1-yl)-ethyl ester hydrochloride], 2 µg/mL; that for `CCNC(=O)Nc1cc2c(-c3ccncc3)ccc(CNC(=O)OCCN3CCCCC3)c2cn1.Cl` [Example 98, [3-(3-ethyl-ureido)-5-pyridin-4-yl-isoquinolin-8-ylmethyl]-carbamic acid 2-piperidin-1-yl-ethyl ester hydrochloride], 4 µg/mL. The compound `CCNC(=O)Nc1cc2c(-c3ccncc3)ccc(CNC(=O)OCC(C)C)c2cn1.Cl` [Example 99, [3-(3-ethyl-ureido)-5-pyridin-4-yl-isoquinolin-8-ylmethyl]-carbamic acid isobutyl ester hydrochloride] displayed an MIC of 0.5 µg/mL. The result for `CCNC(=O)Nc1cc2c(-c3ccncc3)ccc(CNC(=O)OCC[C@H]3CCCNC3)c2cn1.Cl` [Example 100, [3-(3-ethyl-ureido)-5-pyridin-4-yl-isoquinolin-8-ylmethyl]-carbamic acid (R)-2-piperidin-3-yl-ethyl ester hydrochloride] reads 8 µg/mL; that for `CCNC(=O)Nc1cc2c(-c3ccncc3)ccc(CNC(=O)OC[C@H]3CC[C@H](CN)CC3)c2cn1.Cl` [Example 101, trans-[3-(3-ethyl-ureido)-5-pyridin-4-yl-isoquinolin-8-ylmethyl]-carbamic acid 4-(aminomethyl)-(cyclohexylmethyl) ester hydrochloride], 2 µg/mL; that for `CCNC(=O)Nc1cc2c(-c3ccncc3)ccc(CNC(=O)OCC[C@@H](O)CO)c2cn1.Cl` [Example 102, (R)-[3-(3-ethyl-ureido)-5-pyridin-4-yl-isoquinolin-8-ylmethyl]-carbamic acid 3,4-dihydroxy-butyl ester hydrochloride], 1 µg/mL. The compound `CCNC(=O)Nc1cc2c(-c3ccncc3)ccc(CNC(=O)OCCC(=O)O)c2cn1` [Example 104, 3-((((3-(3-ethylureido)-5-(pyridin-4-yl)isoquinolin-8-yl)methyl)carbamoyl)oxy)propanoic acid] registered an MIC of 8 µg/mL (≈ 18.3 µM). In the case of `CCNC(=O)Nc1cc2c(-c3ccncc3)ccc(CNC(=O)OCCC(=O)OC)c2cn1.Cl` [Example 105, methyl 3-((((3-(3-ethylureido)-5-(pyridin-4-yl)isoquinolin-8-yl)methyl)carbamoyl)oxy)propanoate hydrochloride], the MIC stood at 4 µg/mL. For `CCNC(=O)Nc1cc2c(-c3ccncc3)ccc(CNC(=O)OCC#CCO)c2cn1` [Example 106, [3-(3-ethyl-ureido)-5-pyridin-4-yl-isoquinolin-8-ylmethyl]-carbamic acid 4-hydroxy-but-2-ynyl ester], the MIC amounted to 0.25 µg/mL (≈ 0.577 µM).

For the compound `CCNC(=O)Nc1cc2c(-c3ccncc3)ccc(CNC(=O)OCCO)c2cn1` [Example 107, [3-(3-ethyl-ureido)-5-pyridin-4-yl-isoquinolin-8-ylmethyl]-carbamic acid 2-hydroxy-ethyl ester], the minimal inhibitory concentration (MIC) was 1 µg/mL (≈ 2.44 µM). For `CCNC(=O)Nc1cc2c(-c3ccncc3)ccc(CNC(=O)OCC#CCN)c2cn1` [Example 109, [3-(3-ethyl-ureido)-5-pyridin-4-yl-isoquinolin-8-ylmethyl]-carbamic acid 4-amino-but-2-ynyl ester] the value was 2 µg/mL (≈ 4.62 µM).
